Data set [1] can be described thus: Brain penetration potential.
A short description of data set [2]: Solubility of Compound (I) free base in solvents at 50° C. The class given is physicochemical. The following applies: organic solvent or mixture.
Data set [3] is described as follows: Phase 1 single and multiple ascending dose study (safety, tolerability, pharmacokinetics). The class given is in vivo, human. Here is the method:
Compound (I) was administered as the monophosphate salt. Screening of subjects occurred within 28 days prior to (first) dosing. Subjects participated in only 1 cohort in only 1 study part.
Part 1 (SAD): Six (6) cohorts of 8 subjects each (6 active and 2 placebo) were evaluated. […] The first cohort (Cohort S1) included a sentinel group (1 active and 1 placebo) which was dosed at least 24 hours before the remaining 6 subjects (5 active and 1 placebo). Dosing of the remaining 6 subjects in Cohort S1 was conducted following a safety evaluation of the sentinel group.
Blood samples were collected pre-dose on Day-1, on Day 2, and on Day 5 to measure pharmacodynamic (PD) biomarker (tryptase) concentration.
Part 2 (MAD): Four (4) cohorts of 8 subjects each (6 active and 2 placebo) were evaluated.
Plasma samples were collected pre-dose on Days 1-10 for PK assessment. Plasma samples were also collected through 24 hours post-dose on Day 1 and through 96 hours post-dose on Day 10 for PK assessment. Blood samples were collected pre-dose on Day 1, and pre-dose on Days 2, 5, and 9 to measure PD biomarker (tryptase) concentration. […] Safety was assessed according to incidence and severity of adverse events in recipients of Compound (I) as compared with placebo.

Assay in data set [4]: as above
The following applies: five SAD cohorts and three MAD cohorts. The class given is in vivo, human.

A short description of data set [5]: Salt screen: stability on drying and humidity exposure, hygroscopicity. The class given is physicochemical. Here is the method: A stock solution with concentration of 85 mg/mL was prepared in TFE. Stock solutions of fourteen different counter ions (e.g., benzenesulfonic acid, benzoic acid, phosphoric acid, sulfuric acid, citric acid, glucuronic acid, glutamic acid, hydrochloric acid, malic acid, methanesulfonic acid, Succinic acid, tartaric acid, toluenesulfonic acid, and acetic acid) were prepared in EtOH. 352 μL (30 mg) of the freebase solution was added to each vial. 1.1 and/or 2.2 equivalents of the appropriate counter ion stock solution were added to each vial. The vials were left to stir at 45° C. for two hours before being uncapped and left to evaporate at 40° C. with stirring overnight in atmosphere. The vials were then placed under active vacuum at 50° C. for 3 hours to dry thoroughly. Approximately, 20 volumes (600 μL) of screening solvent were then added to each vial, and the samples were heated to 45° C. with stirring (450 rpm). […] After two hours, the samples were left to stir at room temperature.
Crystalline salts were characterized and evaluated for viability based on melting point, crystallinity, stability on drying and humidity exposure, water solubility, polymorphism, and acceptability of counter-ion.

In brackets after ≈: the same amount, converted by molar mass. Like-named read-outs stand apart in the source and are kept apart here. Where only a bound is given, the exact number is not on record here.

As usually defined, the Tmax is the time at which the peak concentration occurs. For `C[C@](N)(c1ccc(F)cc1)c1cnc(N2CCN(c3ncnn4cc(-c5cnn(CCO)c5)cc34)CC2)nc1` [Compound (I), (S)-2-(4-(4-(4-(5-(1-amino-1-(4-fluorophenyl)ethyl)pyrimidin-2-yl)piperazin-1-yl)pyrrolo[1,2-f][1,2,4]triazin-6-yl)-1H-pyrazol-1-yl)ethanol], the brain penetration potential entry in data set [1] was “limited”. For the same molecule, the solubility in data set [2] (ACN:water (7:3 vol.), sample 82-2, read-out: Solubility (mg/mL) at 50° C.) was 8.6 mg/mL (≈ 16.3 mM); in data set [2] (t-BuOH, sample 83-1, read-out: Solubility (mg/mL) at 50° C.), below 2.6 mg/mL; in data set [2] (t-BuOH:water (9:1 vol.), sample 83-2, read-out: Solubility (mg/mL) at 50° C.), below 2.6 mg/mL. For the same molecule, in data set [3] (abdominal pain, decreased appetite, fatigue, headache, nausea, mostly not related to the drug), the “severity of adverse events” value is listed as “Only Grade 1 adverse events”. In data set [3] (across SAD and MAD cohorts), the “increase in systemic exposure with dose” value was “dose-proportional increase”. Also, in data set [3] (across the dose ranges in SAD and MAD cohorts), the linearity of pharmacokinetics result was “linear”. For the same molecule, the half-life in data set [3] (human, plasma, oral, healthy adult subjects, given as monophosphate salt, read-out: mean half-life (t1/2)) was in the range of 20 to 28 h. In addition, the Vd/F in data set [3] (human, plasma, oral, healthy adult subjects, read-out: geometric mean Vz/F) was in the range of 753 to 973 L. For the same molecule, in data set [3] (human, plasma, single oral doses 15-200 mg, fasting, healthy adult subjects, given as monophosphate salt, read-out: median Tmax), the Tmax was 1.5 to 6 h. Besides, the “findings in laboratory or vital signs parameters” value in data set [3] (in vivo) was “no clinically relevant findings”. The “serious AEs” value in data set [3] (in vivo) was “No serious AEs were reported”. Besides, the “steady state expected to be reached” value in data set [3] (once-daily oral dosing) is at most 7 days. The tolerability result in data set [4] is recorded as “well-tolerated”.
For tosylate, the “behaviour of solids upon humidification (high humidity)” value in data set [5] is “deliquescing”.
